Experimental data from ChEMBL document CHEMBL1201862, “PubChem BioAssay data set” (2004).
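Five compound concentrations were applied to cells in 96-well plates for 48 hours; endpoints were derived by simple linear interpolation of the resulting dose-response curve. GI50: concentration for 50% inhibition of growth.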 Activity calls are given as the source filed them. No stated cut-off is given here; in the data, active = GI50 up to about 1.1 µM and inactive = higher.

Tests used:
Experiment in all cases: inhibition of tumour cell growth, NCI panel, 48 h
[1] = tested on: CAKI-1
[2] = tested on: MOLT-4
[3] = tested on: SK-MEL-28
[4] = tested on: NCI-H460
[5] = tested on: HOP-62
[6] = tested on: 786-0
[7] = tested on: SK-MEL-2
[8] = tested on: ACHN
[9] = tested on: DMS-114
[10] = tested on: RPMI-8226
[11] = tested on: HOP-92
[12] = tested on: SF-539
[13] = tested on: A498
[14] = tested on: CCRF-CEM
[15] = tested on: NCI-H23
[16] = tested on: K562
[17] = tested on: SNB-75
[18] = tested on: SR
[19] = tested on: HL-60
[20] = tested on: SN12C
[21] = tested on: LXFL 529
[22] = tested on: SNB-78
[23] = tested on: OVCAR-4
[24] = tested on: DLD-1
[25] = tested on: UO-31
[26] = tested on: U-251
[27] = tested on: M19-MEL
[28] = tested on: Malme-3M
[29] = tested on: UACC-62
[30] = tested on: DMS-273
[31] = tested on: M14
[32] = tested on: HT-29
[33] = tested on: MDA-MB-231
[34] = tested on: IGROV-1
[35] = tested on: LOX IMVI
[36] = tested on: SNB-19
[37] = tested on: BT-549
[38] = tested on: MDA-MB-435
[39] = tested on: NCI-H226
[40] = tested on: HCT-15
[41] = tested on: OVCAR-8
[42] = tested on: A549
[43] = tested on: PC-3
[44] = tested on: RXF 393
[45] = tested on: SF-268
[46] = tested on: HCT-116
[47] = tested on: MDA-N
[48] = tested on: EKVX
[49] = tested on: SK-OV-3
[50] = tested on: T47D
[51] = tested on: MCF7
[52] = tested on: Hs-578T
[53] = tested on: NCI-H522
[54] = tested on: SF-295
[55] = tested on: SK-MEL-5
[56] = tested on: UACC-257
[57] = tested on: OVCAR-3
[58] = tested on: KM12
[59] = tested on: NCI/ADR-RES
[60] = tested on: TK-10
[61] = tested on: COLO 205
[62] = tested on: SW-620
[63] = tested on: DU-145
[64] = tested on: OVCAR-5
[65] = tested on: HCC 2998
[66] = tested on: KM-20L2

## CCCSc1nc(COC(=O)NC)c(COC(=O)NC)n1C
[1]
  GI50: 32.8 µM (inactive)
[2]
  GI50: 21.2 µM (inactive)
[3]
  GI50: > 100 µM (inactive)
[4]
  GI50: 39.7 µM (inactive)
[5]
  GI50: 80.7 µM (inactive)
[6]
  GI50: 69.5 µM (inactive)
[7]
  GI50: 53.2 µM (inactive)
[8]
  GI50: 23.9 µM (inactive)
[9]
  GI50: 58.2 µM (inactive)
[10]
  GI50: 25 µM (inactive)
[11]
  GI50: 56 µM (inactive)
[12]
  GI50: 64.1 µM (inactive)
[13]
  GI50: 46 µM (inactive)
[14]
  GI50: 29.6 µM (inactive)
[15]
  GI50: 54.2 µM (inactive)
[16]
  GI50: 46.2 µM (inactive)
[17]
  GI50: 49 µM (inactive)
[18]
  GI50: 29.4 µM (inactive)
[19]
  GI50: 29.4 µM (inactive)
[20]
  GI50: 88.7 µM (inactive)
[21]
  GI50: 36.3 µM (inactive)
[22]
  GI50: 63.2 µM (inactive)
[23]
  GI50: 93.3 µM (inactive)
[24]
  GI50: > 100 µM (inactive)
[25]
  GI50: 57.1 µM (inactive)
[26]
  GI50: 98.2 µM (inactive)
[27]
  GI50: 88.1 µM (inactive)
[28]
  GI50: 86.5 µM (inactive)
[29]
  GI50: 80.2 µM (inactive)
[30]
  GI50: 48.9 µM (inactive)
[31]
  GI50: > 100 µM (inactive)

## N#Cc1c(N)nc(SCc2ccccc2)c(C#N)c1-c1ccc(O)cc1
[32]
  GI50: 8.22 µM (inactive)
[1]
  GI50: 13.5 µM (inactive)
[2]
  GI50: 5.53 µM (inactive)
[3]
  GI50: 13.4 µM (inactive)
[4]
  GI50: 25.8 µM (inactive)
[5]
  GI50: 15.2 µM (inactive)
[6]
  GI50: 14 µM (inactive)
[33]
  GI50: 12.3 µM (inactive)
[34]
  GI50: 11 µM (inactive)
[35]
  GI50: 16.6 µM (inactive)
[36]
  GI50: 17.3 µM (inactive)
[37]
  GI50: 11.6 µM (inactive)
[7]
  GI50: 15.2 µM (inactive)
[38]
  GI50: 11.6 µM (inactive)
[39]
  GI50: 22.4 µM (inactive)
[40]
  GI50: 11.2 µM
[41]
  GI50: 15 µM (inactive)
[42]
  GI50: 11.7 µM (inactive)
[8]
  GI50: 13.2 µM (inactive)
[43]
  GI50: 15.5 µM (inactive)
[10]
  GI50: 5.24 µM (inactive)
[11]
  GI50: 6.97 µM (inactive)
[44]
  GI50: 15.9 µM (inactive)
[12]
  GI50: 19.5 µM (inactive)
[45]
  GI50: 18.9 µM (inactive)
[46]
  GI50: 11.5 µM (inactive)
[47]
  GI50: 13 µM (inactive)
[13]
  GI50: 13.1 µM (inactive)
[48]
  GI50: 9.44 µM (inactive)
[49]
  GI50: 15.5 µM (inactive)
[50]
  GI50: 5.96 µM (inactive)
[51]
  GI50: 13.9 µM (inactive)
[52]
  GI50: 29.2 µM (inactive)
[53]
  GI50: 12.6 µM (inactive)
[14]
  GI50: 13.4 µM (inactive)
[15]
  GI50: 15.9 µM (inactive)
[16]
  GI50: 11 µM (inactive)
[54]
  GI50: 13.6 µM (inactive)
[17]
  GI50: 16.8 µM (inactive)
[55]
  GI50: 11.7 µM (inactive)
[56]
  GI50: > 37.5 µM (inactive)
[57]
  GI50: 14.6 µM (inactive)
[58]
  GI50: 11 µM (inactive)
[18]
  GI50: 10.9 µM (inactive)
[59]
  GI50: 15.7 µM (inactive)
[19]
  GI50: 11.3 µM (inactive)
[20]
  GI50: 13.8 µM (inactive)
[23]
  GI50: 10.3 µM (inactive)
[60]
  GI50: > 41.8 µM (inactive)
[61]
  GI50: 15.6 µM (inactive)
[25]
  GI50: 1.81 µM (inactive)
[62]
  GI50: 15.2 µM (inactive)
[26]
  GI50: 13.9 µM (inactive)
[28]
  GI50: 15.3 µM (inactive)
[63]
  GI50: 13.5 µM (inactive)
[64]
  GI50: 16.4 µM (inactive)
[65]
  GI50: > 38.5 µM (inactive)
[29]
  GI50: 15.7 µM (inactive)
[31]
  GI50: 14.2 µM (inactive)

## CCCCCCC(=O)C/C(=N/NC(N)=S)C(=O)NC1C2CC3CC(C2)CC1C3 (stereo unspecified)
[32]
  GI50: > 100 µM (inactive)
[2]
  GI50: > 100 µM (inactive)
[3]
  GI50: > 100 µM (inactive)
[4]
  GI50: > 100 µM (inactive)
[5]
  GI50: > 100 µM (inactive)
[6]
  GI50: > 100 µM (inactive)
[34]
  GI50: > 100 µM (inactive)
[35]
  GI50: > 100 µM (inactive)
[36]
  GI50: > 100 µM (inactive)
[7]
  GI50: > 100 µM (inactive)
[39]
  GI50: > 100 µM (inactive)
[41]
  GI50: > 100 µM (inactive)
[42]
  GI50: > 100 µM (inactive)
[8]
  GI50: > 100 µM (inactive)
[10]
  GI50: > 100 µM (inactive)
[11]
  GI50: 86.1 µM (inactive)
[44]
  GI50: > 100 µM (inactive)
[45]
  GI50: > 100 µM (inactive)
[46]
  GI50: > 100 µM (inactive)
[48]
  GI50: > 100 µM (inactive)
[14]
  GI50: > 100 µM (inactive)
[15]
  GI50: > 100 µM (inactive)
[54]
  GI50: > 100 µM (inactive)
[17]
  GI50: > 100 µM (inactive)
[55]
  GI50: > 100 µM (inactive)
[56]
  GI50: > 100 µM (inactive)
[57]
  GI50: > 100 µM (inactive)
[58]
  GI50: > 100 µM (inactive)
[19]
  GI50: > 100 µM (inactive)
[20]
  GI50: > 100 µM (inactive)
[21]
  GI50: > 100 µM (inactive)
[22]
  GI50: > 100 µM (inactive)
[23]
  GI50: > 100 µM (inactive)
[60]
  GI50: > 100 µM (inactive)
[24]
  GI50: > 100 µM (inactive)
[61]
  GI50: > 100 µM (inactive)
[25]
  GI50: > 100 µM (inactive)
[62]
  GI50: > 100 µM (inactive)
[26]
  GI50: > 100 µM (inactive)
[27]
  GI50: > 100 µM (inactive)
[28]
  GI50: > 100 µM (inactive)
[64]
  GI50: > 100 µM (inactive)
[65]
  GI50: > 100 µM (inactive)
[66]
  GI50: > 100 µM (inactive)
[29]
  GI50: > 100 µM (inactive)
[31]
  GI50: > 100 µM (inactive)
